Laboratory results: patent US7803930B2, “Antisense modulation of apolipoprotein B-expression” (Isis Pharmaceuticals, Inc., priority 2002, dated 2010)

Tests used:
[1] = Steatosis following long-term treatment (6, 12 and 20 weeks) in high-fat fed mice: histology and liver triglyceride content; type: in vivo, mouse; conditions: high fat fed C57Bl/6 mice, 25 mg/kg i.p. twice weekly
Description: Quantitation of liver triglyceride content is also used to assess steatosis. Tissue triglyceride levels are measured using a Triglyceride GPO Assay (Sigma-Aldrich, St. Louis, Mo.).
Male C57Bl/6 mice were treated with twice weekly intraperitoneal injections of 25 mg/kg ISIS 147764 (SEQ ID NO: 109) or 25 mg/kg ISIS 141923 (SEQ ID NO: 858) for 6, 12 and 20 weeks. Saline treated animals served as controls. Each treatment group contained 4 animals. Animals were sacrificed at 6, 12 and 20 weeks and liver tissue was procured for histological analysis and measurement of tissue triglyeride content.

[2] = High fat fed C57BL/6 mice, 6 week timecourse: serum cholesterol, triglyceride, lipoprotein and glucose levels; type: in vivo, mouse; conditions: for Percent Inhibition HDL / Percent Inhibition LDL / Percent Inhibition VLDL: negative = increase; for Percent Inhibition of serum cholesterol levels: normalized to saline control; for Triglycerides: study end (control 115 mg/dL); for serum cholesterol: study end (control 240 mg/dL); for serum glucose levels: study termination (saline control 300 mg/dL)
Description: Male C57BL/6 mice (n=8) receiving a high fat diet (60% kcal fat) were evaluated over the course of 6 weeks for the effects of treatment with the antisense oligonucleotide, ISIS 147764. Control animals received saline treatment (50 mg/kg). A subset of animals received a daily oral dose (20 mg/kg) atorvastatin calcium (Lipitor®, Pfizer Inc.). All mice, except atorvastatin-treated animals, were dosed intraperitoneally every three days (twice a week), after fasting overnight, with 5, 25, 50 mg/kg ISIS 147764 (SEQ ID No: 109) or saline (50 mg/kg) for six weeks. Serum cholesterol and lipoproteins were analyzed at 0, 2 and 6 week interim timepoints. At study termination, animals were sacrificed 48 hours after the final injections and evaluated for levels of target mRNA levels in liver, cholesterol, lipoprotein, triglyceride, liver enzyme (AST and ALT) and serum glucose levels as well as body, liver, spleen and fat pad weights.
(§1) Male C57BL/6 mice (n=8) receiving a high fat diet (60% kcal fat) were evaluated over the course of 6 weeks for the effects of ISIS 147764 on serum cholesterol and triglyceride levels. Control animals received saline treatment (50 mg/kg). Mice were dosed intraperitoneally every three days (twice a week), after fasting overnight, with 5, 25, 50 mg/kg ISIS 147764 (SEQ ID No: 109) or saline (50 mg/kg) for six weeks.
Values in the table are expressed as percent inhibition and are normalized to the saline control.
In addition to serum cholesterol, at study termination, animals were sacrificed 48 hours after the final injections and evaluated for triglyceride levels.
as §1, with “lipoprotein (VLDL, LDL” for “serum cholesterol”, “HDL)” for “triglyceride”
Values in the table are expressed as percent inhibition and are normalized to the saline control. Negative values indicate an observed increase in lipoprotein levels.
as §1, with “glucose” for “cholesterol and triglyceride”
At study termination, animals were sacrificed 48 hours after the final injections and evaluated for serum glucose levels. […] Mice treated with atorvastatin at a daily oral dose of 20 mg/kg had serum glucose levels of 215 mg/dL.

[3] = tested on: apolipoprotein B protein; experiment: Apolipoprotein B protein in primary Cynomolgous monkey hepatocytes, immunoblot; type: cell-based
Description: Additionally, protein was isolated from oligonucleotide-treated primary Cynomolgous monkey hepatocytes and subjected to immunoblot analysis to further assess apolipoprotein B protein expression. Immunoblotting was performed as described herein, using an antibody to human apolipoprotein B protein (US Biologicals, Swampscott, Mass.).

[4] = tested on: human apolipoprotein B protein (apolipoprotein B-100 and apolipoprotein B-48); experiment: Transgenic mice dosing study (Example 52): immunoblot of human apolipoprotein B protein in serum and liver; type: in vivo, human transgene in mouse
Description: Apolipoprotein B protein in serum was also assessed by immunoblot analysis using an antibody directed to human apolipoprotein B protein (US Biologicals, Swampscott, Mass.).

GTCCCTGAAGATGTCAATGC (2'-MOE gapmer, further chemistry not given here) [ISIS 147764]
liver tissue triglyceride content vs saline treated animals ([1]; 6, 12 and 20 weeks): no significant differences | steatosis vs saline control animals (histology) ([1]; 12 and 20 weeks): reduced | Percent Inhibition HDL ([2]; 5 mg/kg i.p., 0 weeks): 0% | Percent Inhibition LDL ([2]; 5 mg/kg i.p., 0 weeks): 0% | Percent Inhibition VLDL ([2]; 5 mg/kg i.p., 0 weeks): 0% | Percent Inhibition of serum cholesterol levels ([2]; 5 mg/kg i.p., 0 weeks): 0% | Percent Inhibition HDL ([2]; 5 mg/kg i.p., 2 weeks): 5% | Percent Inhibition LDL ([2]; 5 mg/kg i.p., 2 weeks): −30% | Percent Inhibition VLDL ([2]; 5 mg/kg i.p., 2 weeks): 25% | Percent Inhibition of serum cholesterol levels ([2]; 5 mg/kg i.p., 2 weeks): 5% | Percent Inhibition HDL ([2]; 5 mg/kg i.p., 6 weeks): 10% | Percent Inhibition LDL ([2]; 5 mg/kg i.p., 6 weeks): −10% | Percent Inhibition VLDL ([2]; 5 mg/kg i.p., 6 weeks): 10% | Percent Inhibition of serum cholesterol levels ([2]; 5 mg/kg i.p., 6 weeks): 10% | Triglycerides ([2]; 5 mg/kg): 125 mg/dL | serum cholesterol ([2]; 5 mg/kg): 225 mg/dL | serum glucose levels ([2]; 5 mg/kg): 225 mg/dL | Percent Inhibition HDL ([2]; 25 mg/kg i.p., 0 weeks): 0% | Percent Inhibition LDL ([2]; 25 mg/kg i.p., 0 weeks): 0% | Percent Inhibition VLDL ([2]; 25 mg/kg i.p., 0 weeks): 0% | Percent Inhibition of serum cholesterol levels ([2]; 25 mg/kg i.p., 0 weeks): 0% | Percent Inhibition HDL ([2]; 25 mg/kg i.p., 2 weeks): 10% | Percent Inhibition LDL ([2]; 25 mg/kg i.p., 2 weeks): 10% | Percent Inhibition VLDL ([2]; 25 mg/kg i.p., 2 weeks): 30% | Percent Inhibition of serum cholesterol levels ([2]; 25 mg/kg i.p., 2 weeks): 12% | Percent Inhibition HDL ([2]; 25 mg/kg i.p., 6 weeks): 45% | Percent Inhibition LDL ([2]; 25 mg/kg i.p., 6 weeks): 55% | Percent Inhibition VLDL ([2]; 25 mg/kg i.p., 6 weeks): −30% | Percent Inhibition of serum cholesterol levels ([2]; 25 mg/kg i.p., 6 weeks): 45% | Triglycerides ([2]; 25 mg/kg): 150 mg/dL | serum cholesterol ([2]; 25 mg/kg): 125 mg/dL | serum glucose levels ([2]; 25 mg/kg): 190 mg/dL | lowering of serum lipoproteins compared to atorvastatin ([2]; 50 mg/kg): lowering all categories of serum lipoproteins investigated to a greater extent than atorvastatin | Percent Inhibition HDL ([2]; 50 mg/kg i.p., 0 weeks): 0% | Percent Inhibition LDL ([2]; 50 mg/kg i.p., 0 weeks): 0% | Percent Inhibition VLDL ([2]; 50 mg/kg i.p., 0 weeks): 0% | Percent Inhibition of serum cholesterol levels ([2]; 50 mg/kg i.p., 0 weeks): 0% | Percent Inhibition HDL ([2]; 50 mg/kg i.p., 2 weeks): 10% | Percent Inhibition LDL ([2]; 50 mg/kg i.p., 2 weeks): 40% | Percent Inhibition VLDL ([2]; 50 mg/kg i.p., 2 weeks): 40% | Percent Inhibition of serum cholesterol levels ([2]; 50 mg/kg i.p., 2 weeks): 20% | Percent Inhibition HDL ([2]; 50 mg/kg i.p., 6 weeks): 50% | Percent Inhibition LDL ([2]; 50 mg/kg i.p., 6 weeks): 90% | Percent Inhibition VLDL ([2]; 50 mg/kg i.p., 6 weeks): 15% | Percent Inhibition of serum cholesterol levels ([2]; 50 mg/kg i.p., 6 weeks): 55% | Triglycerides ([2]; 50 mg/kg): 85 mg/dL | serum cholesterol ([2]; 50 mg/kg): 110 mg/dL | serum glucose levels ([2]; 50 mg/kg): 180 mg/dL

ISIS 301012: SEQ ID NO: 247, antisense oligonucleotide targeted to human apolipoprotein B (antisense GCCTCAGTCTGCTTCGCACC; chemistry not given here)
apolipoprotein B expression (immunoblot) [3]: substantial reduction | expression of human apolipoprotein B, B-100 and B-48 forms, in liver (immunoblot) [4]: reduction | human apolipoprotein B protein in serum, B-100 and B-48 forms (immunoblot) ([4]; 2, 4, 6 and 12 weeks of treatment): lowered
